Measured values taken from patent publication US7195893B2, “Nucleic acids encoding α2δ calcium channel subunits and methods for making and using them” (Neuromed Pharmaceuticals Ltd., priority 2003, dated 2007).
Counter-ions that a name gives are not always drawn.

Experiments:
α2δ-2 = α2δ-2 (Homo sapiens, UniProt Q9NY47); details: Marais et al. 2001; cited from earlier work
[1] = target: T1, rat α1B+β1b+chicken α2δ Ca2+ channel (Rattus norvegicus, UniProt Q02294); experiment: whole-cell patch clamp screening for calcium channel blockers; type: cell-based; details: 600 nM, HEK cells, n=3, FIG. 4
T1 construct: expressed in transfected cells; host or cells: HEK 293
Experimental: After an incubation period of 24 to 72 hrs, the culture medium was removed and replaced with an external recording solution containing (in mM) 5 BaCl, 129 CsCl, 1 MgCl2, 10 HEPES, 10 glucose, pH 7.4 with CsOH. Whole-cell patch clamp recordings were made with an Axopatch 200B amplifier (Axon Instruments, USA). Recording electrodes with typical resistances of 4–8 MΩ were backfilled with (in mM) 108 caesium-methansulfonate, 2 MgCl2, 10 HEPES, 11 EGTA, 2 ATP, pH 7.2 with CsOH. To create command potentials and acquire data, Clampex 8.2 software (Axon Instruments, USA) and a Digidata 1322A A/D converter interface (Axon Instrument, USA) were used. Currents were elicited at test potential of +20 mV (50 ms duration) from a holding potential of −80 mV. Leak and capacitance currents were subtracted on-line with a standard P/4 protocol. Evoked currents were filtered by a low-pass Bessel filter set at 1 kHz. Signals were acquired at 2.02 kHz and analyzed offline using pClamp 8.2 (Axon Instruments, USA) and Origin (OriginLab Corporation, USA) software. The effects of co-expressing the α2δ subunit of Example 1 with the rat α1B+β1b calcium channel subunits were tested by comparing average current density (Ipeak/cell capacitance) with and without α2δ.
To screen for calcium channel blockers, the whole-cell patch clamp recording technique used was as described in Example 2. […]

rat α1B+β1b Ca2+ channel = experiment: whole-cell patch clamp, average current density with and without α2δ in transfected HEK 293 cells; type: cell-based; details: HEK 293, 6 cells, test potential +20 mV, holding −80 mV, mean±S.E.M.
Experimental: Human embryonic kidney cells, HEK 293 (ATCC# CRL 1573) were grown in standard DMEM medium supplemented with 2 mM glutamine and 10% fetal bovine serum and transfected by a standard calcium-phosphate-DNA co-precipitation method or by lipofection with the full-length chicken α2δ-1 calcium channel cDNA in the mammalian expression vector pBK-RSV (see Current protocols in Molecular Biology): alone or in combination with expression vectors encoding α1 and β subunits, and with vectors expressing green fluorescent protein (GFP).
After an incubation period of 24 to 72 hrs, the culture medium was removed and replaced with an external recording solution containing (in mM) 5 BaCl, 129 CsCl, 1 MgCl2, 10 HEPES, 10 glucose, pH 7.4 with CsOH. Whole-cell patch clamp recordings were made with an Axopatch 200B amplifier (Axon Instruments, USA). Recording electrodes with typical resistances of 4–8 MΩ were backfilled with (in mM) 108 caesium-methansulfonate, 2 MgCl2, 10 HEPES, 11 EGTA, 2 ATP, pH 7.2 with CsOH. To create command potentials and acquire data, Clampex 8.2 software (Axon Instruments, USA) and a Digidata 1322A A/D converter interface (Axon Instrument, USA) were used. […] Signals were acquired at 2.02 kHz and analyzed offline using pClamp 8.2 (Axon Instruments, USA) and Origin (OriginLab Corporation, USA) software. […]

T1 sequence (Q02294 whole entry): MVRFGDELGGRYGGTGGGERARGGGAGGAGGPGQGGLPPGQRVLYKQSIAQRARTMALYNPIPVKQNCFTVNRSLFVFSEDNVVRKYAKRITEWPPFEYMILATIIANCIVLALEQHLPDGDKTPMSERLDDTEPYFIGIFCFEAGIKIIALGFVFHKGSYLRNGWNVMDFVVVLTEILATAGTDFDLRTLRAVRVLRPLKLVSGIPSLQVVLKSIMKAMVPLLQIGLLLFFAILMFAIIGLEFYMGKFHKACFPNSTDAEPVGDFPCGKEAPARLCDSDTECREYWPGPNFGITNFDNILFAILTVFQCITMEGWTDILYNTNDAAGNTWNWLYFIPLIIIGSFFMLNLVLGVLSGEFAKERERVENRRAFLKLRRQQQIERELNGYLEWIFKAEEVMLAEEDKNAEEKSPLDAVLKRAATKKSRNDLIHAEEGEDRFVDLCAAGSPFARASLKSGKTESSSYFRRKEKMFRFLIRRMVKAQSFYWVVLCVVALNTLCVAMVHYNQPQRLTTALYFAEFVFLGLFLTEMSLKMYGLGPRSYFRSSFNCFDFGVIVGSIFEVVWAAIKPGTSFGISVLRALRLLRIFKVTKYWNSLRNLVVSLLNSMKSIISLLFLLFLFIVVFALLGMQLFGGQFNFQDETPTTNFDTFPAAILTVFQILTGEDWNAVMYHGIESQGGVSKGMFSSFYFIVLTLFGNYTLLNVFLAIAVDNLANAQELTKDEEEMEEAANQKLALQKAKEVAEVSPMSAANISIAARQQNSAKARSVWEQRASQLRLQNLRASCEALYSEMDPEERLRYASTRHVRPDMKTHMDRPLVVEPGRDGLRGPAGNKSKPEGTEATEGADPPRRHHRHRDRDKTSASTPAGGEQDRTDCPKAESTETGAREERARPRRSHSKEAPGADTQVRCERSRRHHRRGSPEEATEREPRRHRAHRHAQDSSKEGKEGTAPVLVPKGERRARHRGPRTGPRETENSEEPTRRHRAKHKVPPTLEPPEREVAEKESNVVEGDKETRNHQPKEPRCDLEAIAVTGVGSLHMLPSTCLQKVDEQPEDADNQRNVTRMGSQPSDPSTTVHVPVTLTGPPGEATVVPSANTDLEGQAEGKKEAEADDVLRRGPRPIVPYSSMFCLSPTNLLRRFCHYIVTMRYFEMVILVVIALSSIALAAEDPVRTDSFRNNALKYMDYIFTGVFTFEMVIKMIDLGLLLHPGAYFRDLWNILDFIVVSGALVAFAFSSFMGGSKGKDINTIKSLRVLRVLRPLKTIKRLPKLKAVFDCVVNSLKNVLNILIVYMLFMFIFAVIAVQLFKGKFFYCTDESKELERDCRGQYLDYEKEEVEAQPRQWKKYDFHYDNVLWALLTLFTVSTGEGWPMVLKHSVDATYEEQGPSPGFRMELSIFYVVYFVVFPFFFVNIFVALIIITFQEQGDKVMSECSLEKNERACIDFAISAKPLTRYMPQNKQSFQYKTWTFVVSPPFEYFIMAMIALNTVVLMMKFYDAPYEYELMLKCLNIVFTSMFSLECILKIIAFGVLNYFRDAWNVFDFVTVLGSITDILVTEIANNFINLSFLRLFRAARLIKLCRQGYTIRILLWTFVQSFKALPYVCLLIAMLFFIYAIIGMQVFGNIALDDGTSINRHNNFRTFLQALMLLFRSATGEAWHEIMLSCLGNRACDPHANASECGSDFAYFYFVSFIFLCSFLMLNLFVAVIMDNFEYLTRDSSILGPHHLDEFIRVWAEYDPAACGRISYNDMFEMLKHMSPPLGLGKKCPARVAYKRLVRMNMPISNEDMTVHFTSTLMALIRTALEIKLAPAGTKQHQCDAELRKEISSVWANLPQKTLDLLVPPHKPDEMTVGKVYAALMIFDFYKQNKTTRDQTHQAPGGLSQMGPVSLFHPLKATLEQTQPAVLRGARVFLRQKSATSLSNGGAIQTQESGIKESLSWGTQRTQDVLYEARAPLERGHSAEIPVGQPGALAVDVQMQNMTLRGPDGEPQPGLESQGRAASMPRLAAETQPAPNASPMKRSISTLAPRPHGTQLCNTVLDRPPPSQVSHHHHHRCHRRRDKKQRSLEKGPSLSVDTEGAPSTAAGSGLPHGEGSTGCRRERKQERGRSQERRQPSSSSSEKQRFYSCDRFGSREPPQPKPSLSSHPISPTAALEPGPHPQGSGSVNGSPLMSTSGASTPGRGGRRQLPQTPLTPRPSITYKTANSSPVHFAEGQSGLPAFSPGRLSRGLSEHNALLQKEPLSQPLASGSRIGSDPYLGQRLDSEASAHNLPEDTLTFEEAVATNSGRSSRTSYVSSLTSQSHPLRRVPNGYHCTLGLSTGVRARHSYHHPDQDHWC
α2δ-2, sequence (Q9NY47 19-1150): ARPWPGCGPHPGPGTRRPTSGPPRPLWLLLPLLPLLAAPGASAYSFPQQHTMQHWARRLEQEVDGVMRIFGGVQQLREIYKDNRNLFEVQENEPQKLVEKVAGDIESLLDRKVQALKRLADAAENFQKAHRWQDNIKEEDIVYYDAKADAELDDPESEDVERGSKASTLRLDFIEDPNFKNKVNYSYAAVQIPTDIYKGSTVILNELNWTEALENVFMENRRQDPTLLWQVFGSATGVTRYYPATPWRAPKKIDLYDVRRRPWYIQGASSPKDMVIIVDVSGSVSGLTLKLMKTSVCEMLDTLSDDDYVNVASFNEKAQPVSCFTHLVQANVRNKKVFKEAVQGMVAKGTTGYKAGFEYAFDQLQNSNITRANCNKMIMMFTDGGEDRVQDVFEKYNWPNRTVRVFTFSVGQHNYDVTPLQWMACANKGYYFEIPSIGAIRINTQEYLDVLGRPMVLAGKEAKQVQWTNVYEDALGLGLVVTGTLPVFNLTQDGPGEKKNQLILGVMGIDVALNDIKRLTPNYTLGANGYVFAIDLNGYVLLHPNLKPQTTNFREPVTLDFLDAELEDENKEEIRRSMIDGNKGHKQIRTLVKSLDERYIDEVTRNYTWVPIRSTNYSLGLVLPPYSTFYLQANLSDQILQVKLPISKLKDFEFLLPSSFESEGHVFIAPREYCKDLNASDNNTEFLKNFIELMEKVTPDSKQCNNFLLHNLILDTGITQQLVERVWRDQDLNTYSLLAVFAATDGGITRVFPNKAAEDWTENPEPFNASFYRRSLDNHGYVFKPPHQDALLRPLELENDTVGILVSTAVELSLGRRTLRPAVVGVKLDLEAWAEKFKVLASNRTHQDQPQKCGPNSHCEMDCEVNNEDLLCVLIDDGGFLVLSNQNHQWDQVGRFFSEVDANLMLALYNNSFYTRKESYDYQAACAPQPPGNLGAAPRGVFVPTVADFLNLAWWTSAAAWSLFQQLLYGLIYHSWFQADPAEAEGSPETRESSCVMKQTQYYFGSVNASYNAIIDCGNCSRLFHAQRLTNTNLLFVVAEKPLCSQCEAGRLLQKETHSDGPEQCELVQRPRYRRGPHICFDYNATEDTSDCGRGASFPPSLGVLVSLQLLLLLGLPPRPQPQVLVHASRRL

Molecule: NCC1(CC(=O)O)CCCCC1 [Gabapentin]
- binding to α2δ-2 (α2δ-2): bind

Molecule: O=C(CC(c1ccccc1)c1ccccc1)N1CCN(C(c2ccccc2)c2ccccc2)CC1 [NMED 160 (HCl)]
- inhibition of Ca2+ channel current (average current density) [1]: inhibition

B1: chicken α2δ subunit: α2δ-1 calcium channel subunit of White Leghorn chicken, SEQ ID NO:2, 1,087 amino acids (protein, listed as Gallus domesticus)
chain: MAAGWLLVFSLTLFQSLVMNHSSEGPFPSPTTIKSWVDKMQEDLITLARTASGVEQLAAIYLKNKDLYTVEANNPRQLVEIAARDIEKLLSNRSKALVRLAKEAEKYQASHQWRDEFGNNDIIYYNAKDDQNDPEKNDTESGSQRIRPVFEEDPVFRRQTSYQHAAVHIPTDIYEGSTIVLNELNWTAALDDVFKRNREEDPTLLWQVFGSATGLARYYPASPWVDNSRTPNKIDLYDVRRRPWYIQGAASPKDMLILVDASGSVSGLTLKLIRTSVIEMLETLSDDDFVNVVSFNNNAQNVSCFNHLVQANVRNKKKLKEAVDKISAKGITDYKKGFSYAFEQLLNHSVSRANCNKIIMLFTDGGEERAQEIFHKYNEDKKVRVFTFSVGQHNYDKGPIQWMACENKGYYYEIPSIGAIRINTQEYLDVLGRPMVLAGEKAKQVQWTNVYLDALELGLVITGTLPVFNLTKEQNGKINQLILGVMGVDVSLEDIKKLTPRFTLCPNGYYFAIDPNGYVLLHPNLQPKNPKSQEPVTLDFLDAELENDIKVEIRKKMIDGESGEKTFETLVKSQDERYIDKGNRTYTWTAVNGTDYSLALVLPSYSFYYIKAKIEEPITQARLEIKKDSETLKIDHFDEAGYTFIAPREYCTDVKKSENNTEFLLNFNEFIDRNTPSSPSCNTDMVIRVLLDAGFTNELAQNYWSKLYLDGVVAQFVVTDGGITRVFPKRAGEDWLENAETYEVSFYKRSLDNDNYIFTAPYYNKSGANSYESGIMVSKAVEITINGKLLKPAVVGIKIDAMKWMENFTTTTIKSLCNSEICGCEKNSMHVDCVILDDGGFLLMSNRDEYTHQIGRFFGEIDPGLMRNLINMSLYAFNKSYDYQSVCDPEEEPKQGAGLRSAYVPTIADILQLGWWASAAAWSILQQLFLSLTFPRFLEAADMEDDDFSTALPKTSCITEQTQYFFENDDKSFIGIVDCINCSRLYHAEKISNTNLVFIISDSQLLCRSCDPKPLMQAEKPDEGPNPCEMVKQPRYRKGPDVCFDEAKQEDSADCGGASGLSPSLWSMVGIQLVLLWLLSGSRHYQL
- mean current density when coexpressed with chicken α2δ subunit (rat α1B+β1b Ca2+ channel): −74.5±14.0 pA/pF
